These results are taken from US11339171B2, “MDM2 inhibitors” (Gan & Lee Pharmaceuticals, priority 2017, dated 2022).

The experiment deals with T1, MDM2 (Homo sapiens, UniProt Q00987).
T1 construct: made in house
The experiment can be described thus: Inhibition test of MDM2-P53 (GST-MDM2, Biotin-P53, Anti-GST-Tb, SA-XL665). The format is binding. Summed up:
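Compounds, serially diluted 5-fold (twelve concentrations), were shaken for 90 min at 25° C with a mix of GST-MDM2 (4 nM final), Biotin-P53, anti-GST-Tb and SA-XL665. Buffer: 1×PBS, 0.1% BSA, 5 mM DTT, 1 mM AEBSF; signal read on a microplate reader.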

Each structure is given as a SMILES string.

T1 sequence (Q00987 whole entry): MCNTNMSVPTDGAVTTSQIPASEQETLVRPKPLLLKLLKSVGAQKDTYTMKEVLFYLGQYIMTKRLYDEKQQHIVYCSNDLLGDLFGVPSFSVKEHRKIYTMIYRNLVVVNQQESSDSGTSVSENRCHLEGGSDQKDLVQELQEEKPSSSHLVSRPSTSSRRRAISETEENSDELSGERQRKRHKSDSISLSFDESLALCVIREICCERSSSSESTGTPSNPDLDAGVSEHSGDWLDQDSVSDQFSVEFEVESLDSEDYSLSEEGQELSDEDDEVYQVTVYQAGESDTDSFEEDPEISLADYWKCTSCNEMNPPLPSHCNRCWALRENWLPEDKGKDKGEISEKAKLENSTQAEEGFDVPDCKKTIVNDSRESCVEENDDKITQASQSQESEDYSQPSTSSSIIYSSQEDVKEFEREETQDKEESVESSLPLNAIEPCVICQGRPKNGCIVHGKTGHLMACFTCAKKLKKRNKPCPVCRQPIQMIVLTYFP

Broadly, the IC50 is the point on the concentration scale where inhibition reaches its midpoint. Read a high IC50 as weaker potency in that assay. With `COc1cc(OCCO)ccc1-c1nc2c(n1C(C)C)[C@]1(C(=O)Nc3cc(Cl)ccc31)N(c1cc(Cl)ccc1C)C2=O` [Example R-148, (R)-6-chloro-5′-(5-chloro-2-methylphenyl)-2′-(4-(2-hydroxyethoxy)-2-methoxyphenyl)-3′-isopropyl-3′H-spiro[dihydroindole-3,4′-pyrrolo[3,4-d]imidazole]-2,6′(5′H)-dione], the midpoint of inhibition, the IC50, lay at 201 nM.

`COc1nc(C(C)C)ccc1-c1nc2c(n1C(C)C)[C@]1(C(=O)Nc3cc(Cl)ccc31)N(c1cc(Cl)ccc1C)C2=O` [Example R-149, (R)-6-chloro-5′-(5-chloro-2-methylphenyl)-3′-isopropyl-2′-(6-isopropyl-2-methoxypyridin-3-yl)-3′H-spiro[dihydroindole-3,4′-pyrrolo[3,4-d]imidazole]-2,6′(5′H)-dione]: the IC50 is 2280 nM.

Regarding `COc1ncc(-c2nc3c(n2C(C)C)[C@]2(C(=O)Nc4cc(Cl)ccc42)N(c2cc(Cl)ccc2C#N)C3=O)c(OC)n1` [Example R-151, (R)-4-chloro-2-(6-chloro-2′-(2,4-dimethoxypyrimidin-5-yl)-3′-isopropyl-2,6′-dioxo-3′,6′-dihydro-5′H-spiro[dihydroindole-3,4′-pyrrolo[3,4-d]imidazole]-5′-yl)benzonitrile], half-maximal inhibition (IC50) was put at 5370 nM.

For the molecule `COc1cc(C(F)(F)F)ncc1-c1nc2c(n1C(C)C)[C@]1(C(=O)Nc3cc(Cl)ccc31)N(c1cc(Cl)cnc1C)C2=O` [Example R-152, (R)-6-chloro-5′-(5-chloro-2-methylpyridin-3-yl)-3′-isopropyl-2′-(4-methoxy-6-(trifluoromethyl)pyridine-3-yl)-3′H-spiro[dihydroindole-3,4′-pyrrolo[3,4-d]imidazole]-2,6′(5′H)-dione], the IC50 turned out to be 134 nM.

Turning to `COc1cc(OCC(F)F)ncc1-c1nc2c(n1C(C)C)[C@]1(C(=O)Nc3cc(Cl)ccc31)N(c1cc(Cl)ccc1C)C2=O` [Example R-153, (R)-6-chloro-5′-(5-chloro-2-methylphenyl)-2′-(6-(2,2-difluoroethoxy)-4-methoxypyridin-3-yl)-3′-isopropyl-3′H-spiro[dihydroindole-3,4′-pyrrolo[3,4-d]imidazole]-2,6′(5′H)-dione], it took 31.1 nM to reach half-maximal inhibition (IC50).

In turn, `COc1cc(C)ncc1-c1nc2c(n1C(C)C)[C@]1(C(=O)Nc3cc(Cl)ccc31)N(c1cc(Cl)ccc1C)C2=O` [Example R-154, (R)-6-chloro-5′-(5-chloro-2-methylphenyl)-3′-isopropyl-2′-(4-methoxy-6-methylpyridin-3-yl)-3′H-spiro[dihydroindole-3,4′-pyrrolo[3,4-d]imidazole]-2,6′(5′H)-dione] returned an IC50 of 31.1 nM.

As to `COc1ncc(-c2nc3c(n2C(C)C)[C@]2(C(=O)Nc4cc(Cl)ccc42)N(c2ccc(C#N)c(Cl)c2)C3=O)c(OC)n1` [Example R-158, (R)-2-chloro-4-(6-chloro-2′-(2,4-dimethoxypyrimidin-5-yl)-3′-isopropyl-2,6′-dioxo-3′,6′-dihydro-5′H-spiro[dihydroindole-3,4′-pyrrolo[3,4-d]imidazole]-5′-yl)benzonitrile], half-maximal inhibition (IC50) was put at 2200 nM.

`COc1ncc(-c2nc3c(n2C(C)C)[C@]2(C(=O)Nc4cc(Cl)ccc42)N(c2ccc(OC(F)(F)F)c(Cl)c2)C3=O)c(OC)n1` [Example R-161, (R)-6-chloro-5′-(3-chloro-4-(trifluoromethoxy)phenyl)-2′-(2,4-dimethoxypyrimidin-5-yl)-3′-isopropyl-3′H-spiro[dihydroindole-3,4′-pyrrolo[3,4-d]imidazole]-2,6′(5′H)-dione]: it took 126 nM to reach half-maximal inhibition (IC50).

The molecule `COc1cc(OCCF)ncc1-c1nc2c(n1C(C)C)[C@]1(C(=O)Nc3cc(Cl)ccc31)N(c1cc(Cl)ccc1C)C2=O` [Example R-163, (R)-6-chloro-5′-(5-chloro-2-methylphenyl)-2′-(6-(2-fluoroethoxy)-4-methoxypyridin-3-yl)-3′-isopropyl-3′H-spiro[dihydroindole-3,4′-pyrrolo[3,4-d]imidazole]-2,6′(5′H)-dione] came in with a 50% inhibitory concentration (IC50) of 166 nM.

Consider `COc1cc(C(C)C)ncc1-c1nc2c(n1C(C)C)[C@]1(C(=O)Nc3cc(Cl)ccc31)N(c1cc(Cl)ccc1C)C2=O` [Example R-164, (R)-6-chloro-5′-(5-chloro-2-methylphenyl)-3′-isopropyl-2′-(6-isopropyl-4-methoxypyridin-3-yl)-3′H-spiro[dihydroindole-3,4′-pyrrolo[3,4-d]imidazole]-2,6′(5′H)-dione], for which the midpoint of inhibition, the IC50, lay at 592 nM.

The molecule `COc1cc(C(C)C)ncc1-c1nc2c(n1C(C)C)[C@]1(C(=O)Nc3cc(Cl)ccc31)N(c1cc(Cl)cnc1C)C2=O` [Example R-166, (R)-6-chloro-5′-(5-chloro-2-methylpyridin-3-yl)-3′-isopropyl-2′-(6-isopropyl-4-methoxypyridin-3-yl)-3′H-spiro[dihydroindole-3,4′-pyrrolo[3,4-d]imidazole]-2,6′(5′H)-dione] gave an IC50 of 957 nM.

On to `COc1nc(OCCF)ncc1-c1nc2c(n1C(C)C)[C@]1(C(=O)Nc3cc(Cl)ccc31)N(c1cc(Cl)cnc1C)C2=O` [Example R-170, (R)-6-chloro-5′-(5-chloro-2-methylpyridin-3-yl)-2′-(2-(2-fluoroethoxy)-4-methoxypyrimidin-5-yl)-3′-isopropyl-3′H-spiro[dihydroindole-3,4′-pyrrolo[3,4-d]imidazole]-2,6′(5′H)-dione], for which half-maximal inhibition (IC50) required 235 nM.

For the molecule `COc1nc(OCCF)ncc1-c1nc2c(n1C(C)C)[C@]1(C(=O)Nc3cc(Cl)ccc31)N(c1cccc(Cl)c1)C2=O` [Example R-171, (R)-6-chloro-5′-(3-chlorophenyl)-2′-(2-(2-fluoroethoxy)-4-methoxypyrimidin-5-yl)-3′-isopropyl-3′H-spiro[dihydroindole-3,4′-pyrrolo[3,4-d]imidazole]-2,6′(5′H)-dione], the IC50 was 8830 nM.

Take `COc1nc(C(C)C)ncc1-c1nc2c(n1C(C)C)[C@]1(C(=O)Nc3cc(Cl)ccc31)N(c1cc(Cl)ccc1C)C2=O` [Example R-172, (R)-6-chloro-5′-(5-chloro-2-methylphenyl)-3′-isopropyl-2′-(2-isopropyl-4-methoxypyrimidin-5-yl)-3′H-spiro[dihydroindole-3,4′-pyrrolo[3,4-d]imidazole]-2,6′(5′H)-dione]: half-maximal inhibition (IC50) required 408 nM.

As to `COc1cc(OCCF)ncc1-c1nc2c(n1C(C)C)[C@]1(C(=O)Nc3cc(Cl)ccc31)N(c1cc(Cl)cnc1C)C2=O` [Example R-173, (R)-6-chloro-5′-(5-chloro-2-methylpyridin-3-yl)-2′-(6-(2-fluoroethoxy)-4-methoxypyridin-3-yl)-3′-isopropyl-3′H-spiro[dihydroindole-3,4′-pyrrolo[3,4-d]imidazole]-2,6′(5′H)-dione], the IC50 came to 528 nM.

`COc1nc(C2CC2)ncc1-c1nc2c(n1C(C)C)[C@]1(C(=O)Nc3cc(Cl)ccc31)N(c1cc(F)cc(Cl)c1)C2=O` [Example R-174, (R)-6-chloro-5′-(3-chloro-5-fluorophenyl)-2′-(2-cyclopropyl-4-methoxypyrimidin-5-yl)-3′-isopropyl-3′H-spiro[dihydroindole-3,4′-pyrrolo[3,4-d]imidazole]-2,6′(5′H)-dione]: the IC50 turned out to be 515 nM.

In turn, `COc1cc(OC)c(-c2nc3c(n2C(C)C)[C@]2(C(=O)Nc4cc(Cl)ccc42)N(c2cc(F)cc(Cl)c2)C3=O)cn1` [Example R-175, (R)-6-chloro-5′-(3-chloro-5-fluorophenyl)-2′-(4,6-dimethoxypyridin-3-yl)-3′-isopropyl-3′H-spiro[dihydroindole-3,4′-pyrrolo[3,4-d]imidazole]-2,6′(5′H)-dione] yielded an IC50 of 522 nM.
